Patent US10174035B2, “6-morpholinyl-2-pyrazolyl-9H-purine derivatives and their use as PI3K inhibitors” (Daiichi Sankyo Company, Limited, priority 2015, dated 2019)

Molecular target: recombinant PI3K δ enzyme (Homo sapiens (Human), UniProt O00329)
Test: In vitro enzyme assay (Kinase-Glo luminescent kinase assay), PI3Kδ
Type: biochemical
Procedure: The Kinase-Glo luminescent kinase assay kit (from Promega) was used to measure kinase activity. In this assay, amount of ATP remaining in solution following a kinase reaction is measured. The effect of compounds on PI3Kδ inhibition was carried out by adding 2.29 μg/ml of recombinant PI3K δ enzyme (Proteros, Germany) to reaction mixture containing assay buffer (50 mM HEPES, pH 7.4, 50 mM NaCl, 0.05% CHAPS) supplemented with 10 mM MgCl2, 5 mM DTT, 60 μM Phosphatidyl inositol bisphosphate (PIP2) and 10 μM ATP in the absence or presence of different concentrations of the compounds in a final volume of 15 μl/well, in a 384 well plate. The reaction mixture was incubated for 2 hours at room temperature. At the end of incubation period the equal volume of Kinase-Glo plus (Promega, V3772), was added per well and the luminescence was measured after incubating for 10 minutes at room temperature in dark. Results were calculated by measuring the luminescence units of test samples to blanks containing no enzyme.
The compounds of the present invention were tested for their selectivity for PI3Kδ over PI3Kα, PI3Kβ and PI3Kγ following the above assay using specific recombinant enzymes (Proteros, Germany) for each kinase. Assay condition of kinase assay (PI3Kα, PI3Kβ, PI3Kγ and PI3Kδ) was as follows. Enzyme: 2.29 μg/mL; ATP: 10 μM; PIP2 substrate: 60 μM and Reaction Time: 2 hours.

Sequence of recombinant PI3K δ enzyme (O00329 whole entry, species assumed): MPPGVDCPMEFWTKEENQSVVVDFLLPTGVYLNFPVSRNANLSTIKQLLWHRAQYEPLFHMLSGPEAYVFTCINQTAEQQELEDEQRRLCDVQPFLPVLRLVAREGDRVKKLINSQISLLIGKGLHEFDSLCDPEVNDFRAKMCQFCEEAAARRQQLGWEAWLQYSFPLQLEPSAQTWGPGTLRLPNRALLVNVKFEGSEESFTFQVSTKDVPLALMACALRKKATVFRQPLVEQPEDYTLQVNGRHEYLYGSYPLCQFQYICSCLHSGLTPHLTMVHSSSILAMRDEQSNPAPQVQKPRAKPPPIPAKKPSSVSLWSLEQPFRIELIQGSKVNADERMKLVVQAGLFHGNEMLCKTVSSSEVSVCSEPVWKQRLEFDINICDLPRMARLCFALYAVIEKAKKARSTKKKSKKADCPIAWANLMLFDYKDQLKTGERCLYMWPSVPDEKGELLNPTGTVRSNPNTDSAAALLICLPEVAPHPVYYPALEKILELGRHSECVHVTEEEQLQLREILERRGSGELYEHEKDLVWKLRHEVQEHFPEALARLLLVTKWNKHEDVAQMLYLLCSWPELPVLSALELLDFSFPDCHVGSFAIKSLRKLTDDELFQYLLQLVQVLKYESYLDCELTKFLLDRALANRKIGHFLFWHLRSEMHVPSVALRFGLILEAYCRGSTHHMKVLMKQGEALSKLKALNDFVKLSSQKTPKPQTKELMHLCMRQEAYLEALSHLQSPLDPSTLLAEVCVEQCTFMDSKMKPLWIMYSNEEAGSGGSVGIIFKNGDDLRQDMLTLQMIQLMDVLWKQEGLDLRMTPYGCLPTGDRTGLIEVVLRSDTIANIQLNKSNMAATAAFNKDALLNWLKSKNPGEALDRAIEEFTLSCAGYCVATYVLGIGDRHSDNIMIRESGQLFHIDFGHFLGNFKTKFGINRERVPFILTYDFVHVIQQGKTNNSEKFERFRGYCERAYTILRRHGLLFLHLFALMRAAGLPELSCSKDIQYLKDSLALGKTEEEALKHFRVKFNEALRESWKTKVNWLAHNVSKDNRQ
Sequence of recombinant PI3K δ enzyme (P27986 whole entry partner, species assumed): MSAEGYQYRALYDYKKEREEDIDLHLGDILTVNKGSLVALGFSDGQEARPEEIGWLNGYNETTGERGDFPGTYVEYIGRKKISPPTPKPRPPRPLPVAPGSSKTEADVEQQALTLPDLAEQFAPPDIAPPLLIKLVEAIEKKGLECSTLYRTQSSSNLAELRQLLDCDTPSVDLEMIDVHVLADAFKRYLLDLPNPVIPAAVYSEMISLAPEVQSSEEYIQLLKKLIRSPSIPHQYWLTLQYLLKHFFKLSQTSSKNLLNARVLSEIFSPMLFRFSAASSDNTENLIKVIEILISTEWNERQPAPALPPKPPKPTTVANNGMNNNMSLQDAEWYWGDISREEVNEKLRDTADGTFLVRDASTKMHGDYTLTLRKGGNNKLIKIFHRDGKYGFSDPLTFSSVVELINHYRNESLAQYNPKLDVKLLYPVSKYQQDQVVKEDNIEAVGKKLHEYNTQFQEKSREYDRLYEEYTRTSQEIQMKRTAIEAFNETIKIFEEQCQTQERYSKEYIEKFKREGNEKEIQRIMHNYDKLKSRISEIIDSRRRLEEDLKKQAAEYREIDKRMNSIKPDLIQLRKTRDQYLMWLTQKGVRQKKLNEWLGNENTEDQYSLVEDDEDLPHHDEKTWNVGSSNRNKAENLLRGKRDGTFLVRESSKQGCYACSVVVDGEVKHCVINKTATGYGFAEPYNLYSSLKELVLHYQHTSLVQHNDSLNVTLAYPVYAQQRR

| IC50 [nM] | Structure (SMILES) |
| --- | --- |
| 88 | Cn1cc(-c2nc(N3CCOCC3)c3nc(C(=O)N4CCCCC4)[nH]c3n2)cn1 [compound 53, [2-(1-Methyl-1H-pyrazol-4-yl)-6-(morpholin-4-yl)-9H-purin-8-yl](piperidin-1-yl)methanone] |
| 10 | Cn1cc(-c2cc(N3CCOCC3)c3nc(C(=O)N4CC(N5CCOCC5)C4)[nH]c3n2)cn1 [compound 120, [5-(1-Methyl-1H-pyrazol-4-yl)-7-(morpholin-4-yl)-3H-imidazo[4,5-b]pyridin-2-yl][3-(morpholin-4-yl)azetidin-1-yl]methanone] |
| 240 | CN(C(=O)c1nc2c(N3CCOCC3)nc(-c3cnn(C)c3)nc2[nH]1)C1CCN(C2COC2)CC1 [compound 132, N-Methyl-2-(1-methyl-1H-pyrazol-4-yl)-6-(morpholin-4-yl)-N-[1-(oxetan-3-yl)piperidin-4-yl]-9H-purine-8-carboxamide] |
| 465 | Cn1cc(-c2nc(N3CCOCC3)c3nc(C(=O)N4CCNC(=O)C4)[nH]c3n2)cn1 [compound 31, 4-{[2-(1-Methyl-1H-pyrazol-4-yl)-6-(morpholin-4-yl)-9H-purin-8-yl]carbonyl}piperazin-2-one] |
| 88 | Cn1cc(-c2nc(N3CCOCC3)c3nc(C(=O)N4CCC[C@H](N5CCOCC5)C4)[nH]c3n2)cn1 [compound 13, [2-(1-Methyl-1H-pyrazol-4-yl)-6-(morpholin-4-yl)-9H-purin-8-yl][(3S)-3-(morpholin-4-yl)piperidin-1-yl]methanone] |
| 64 | CN(C)C1CCN(C(=O)c2nc3c(N4CCOCC4)cc(-c4cnn(C)c4)nc3n2C)CC1 [compound 100, [4-(Dimethylamino)piperidin-1-yl][3-methyl-5-(1-methyl-1H-pyrazol-4-yl)-7-(morpholin-4-yl)-3H-imidazo[4,5-b]pyridin-2-yl]methanone] |
| 48 | Cn1cc(-c2nc(N3CCOCC3)c3nc(C(=O)NCCN4CCOCC4)[nH]c3n2)cn1 [compound 2, 2-(1-Methyl-1H-pyrazol-4-yl)-6-(morpholin-4-yl)-N-[2-(morpholin-4-yl)ethyl]-9H-purine-8-carboxamide] |
| 15 | Cc1nn(C)cc1-c1nc2c(nc(C(=O)N3CCC(N4C[C@@H](C)O[C@@H](C)C4)CC3)n2C)c(N2CCOCC2)c1F [compound 112, {4-[cis-2,6-Dimethylmorpholin-4-yl]piperidin-1-yl}[5-(1,3-dimethyl-1H-pyrazol-4-yl)-6-fluoro-3-methyl-7-(morpholin-4-yl)-3H-imidazo[4,5-b]pyridin-2-yl]methanone] |
| 19 | Cn1cc(-c2cc(N3CCOCC3)c3nc(C(=O)N4CC(N5CCNC(=O)C5)C4)[nH]c3n2)cn1 [Compound No. 128, 4-(1-{[5-(1-Methyl-1H-pyrazol-4-yl)-7-(morpholin-4-yl)-3H-imidazo[4,5-b]pyridin-2-yl]carbonyl}azetidin-3-yl)piperazin-2-one] |
| 63 | C[C@@H]1CN(C2CCN(C(=O)c3nc4c(N5CCOCC5)cc(-c5cnn(C)c5)nc4n3C)CC2)C[C@H](C)O1 [compound 110, {4-[cis-2,6-Dimethylmorpholin-4-yl]piperidin-1-yl}[3-methyl-5-(1-methyl-1H-pyrazol-4-yl)-7-(morpholin-4-yl)-3H-imidazo[4,5-b]pyridin-2-yl]methanone] |
| 76 | CN(C)[C@H]1CCN(C(=O)c2nc3c(N4CCOCC4)nc(-c4cnn(C)c4)nc3[nH]2)C1 [compound 44, [(3S)-3-(Dimethylamino)pyrrolidin-1-yl][2-(1-methyl-1H-pyrazol-4-yl)-6-(morpholin-4-yl)-9H-purin-8-yl]methanone] |
| 202 | Cc1c(-c2nc3[nH]c(C(=O)N4CCC(N5CCOCC5)CC4)nc3c(N3CCOCC3)c2F)cnn1C [compound 95, [5-(1,5-Dimethyl-1H-pyrazol-4-yl)-6-fluoro-7-(morpholin-4-yl)-3H-imidazo[4,5-b]pyridin-2-yl][4-(morpholin-4-yl)piperidin-1-yl]methanone] |
| 28 | Cc1c(-c2nc(N3CCOCC3)c3nc(C(=O)N4CCC(N5CCOCC5)CC4)[nH]c3n2)cnn1C [compound 40, [2-(1,5-Dimethyl-1H-pyrazol-4-yl)-6-(morpholin-4-yl)-9H-purin-8-yl][4-(morpholin-4-yl)piperidin-1-yl]methanone] |
| 20 | Cn1cc(-c2nc(N3CCOCC3)c3nc(C(=O)N4CC[C@@H](NS(C)(=O)=O)C4)[nH]c3n2)cn1 [compound 38, N-[(3R)-1-{[2-(1-methyl-1H-pyrazol-4-yl)-6-(morpholin-4-yl)-9H-purin-8-yl]carbonyl}pyrrolidin-3-yl]methanesulfonamide] |
| 9 | Cc1nn(C)cc1-c1nc(N2CCOCC2)c2nc(C(=O)N3CCN(C4CCOCC4)CC3)[nH]c2n1 [compound 9, [2-(1,3-Dimethyl-1H-pyrazol-4-yl)-6-(morpholin-4-yl)-9H-purin-8-yl][4-(tetrahydro-2H-pyran-4-yl)piperazin-1-yl]methanone] |
| 54 | CN1CCN(CCNC(=O)c2nc3c(N4CCOCC4)nc(-c4cnn(C)c4)nc3[nH]2)CC1 [compound 70, N-[2-(4-methylpiperazin-1-yl)ethyl]-2-(1-methyl-1H-pyrazol-4-yl)-6-(morpholin-4-yl)-9H-purine-8-carboxamide] |
| 69 | CN1CCN(C(=O)c2nc3c(N4CCOCC4)nc(-c4cnn(C)c4)nc3[nH]2)CC1 [compound 46, (4-Methylpiperazin-1-yl)[2-(1-methyl-1H-pyrazol-4-yl)-6-(morpholin-4-yl)-9H-purin-8-yl]methanone] |
| 36 | C[C@@H]1CN(C2CN(C(=O)c3nc4c(N5CCOCC5)c(F)c(-c5cnn(C)c5)nc4[nH]3)C2)C[C@H](C)O1 [compound 127, {3-[(2R,6S)-2,6-dimethylmorpholin-4-yl]azetidin-1-yl}[6-fluoro-5-(1-methyl-1H-pyrazol-4-yl)-7-(morpholin-4-yl)-3H-imidazo[4,5-b]pyridin-2-yl]methanone] |
| 86 | Cn1cc(-c2nc(N3CCOCC3)c3nc(C(=O)N4CCNCC4)[nH]c3n2)cn1 [compound 20, [2-(1-Methyl-1H-pyrazol-4-yl)-6-(morpholin-4-yl)-9H-purin-8-yl](piperazin-1-yl)methanone] |
| 72 | Cc1nn(C)cc1-c1cc(N2CCOCC2)c2nc(C(=O)N3CCC(N4C[C@@H](C)O[C@@H](C)C4)CC3)n(C)c2n1 [compound 114, {4-[cis-2,6-Dimethylmorpholin-4-yl]piperidin-1-yl}[5-(1,3-dimethyl-1H-pyrazol-4-yl)-3-methyl-7-(morpholin-4-yl)-3H-imidazo[4,5-b]pyridin-2-yl]methanone] |
| 57 | Cn1cc(-c2nc(N3CCOCC3)c3nc(C(=O)N4CCN(C(=O)OC(C)(C)C)CC4)[nH]c3n2)cn1 [compound 43, Tert-butyl 4-{[2-(1-methyl-1H-pyrazol-4-yl)-6-(morpholin-4-yl)-9H-purin-8-yl]carbonyl}piperazine-1-carboxylate] |
| 194 | Cn1cc(-c2nc3[nH]c(C(=O)N4CCN5C(=O)COC[C@H]5C4)nc3c(N3CCOCC3)c2F)cn1 [compound 80, (9aR)-8-{[6-Fluoro-5-(1-methyl-1H-pyrazol-4-yl)-7-(morpholin-4-yl)-3H-imidazo[4,5-b]pyridin-2-yl]carbonyl}hexahydropyrazino[2,1-c][1,4]oxazin-4(3H)-one] |
| 30 | Cn1cc(-c2cc(N3CCOCC3)c3nc(C(=O)N4CCC(N5CCOCC5)CC4)n(C)c3n2)cn1 [compound 106, [3-Methyl-5-(1-methyl-1-pyrazol-4-yl)-7-(morpholin-4-yl)-3H-imidazo[4,5-b]pyridin-2-yl][4-(morpholin-4-yl)piperidin-1-yl]methanone] |
| 60 | Cn1cc(-c2nc(N3CCOCC3)c3nc(C(=O)NCCCN4CCCC4=O)n(C)c3n2)cn1 [compound 73, 9-Methyl-2-(1-methyl-1H-pyrazol-4-yl)-6-(morpholin-4-yl)-N-[3-(2-oxopyrrolidin-1-yl)propyl]-9H-purine-8-carboxamide] |
| 231 | COCCNC(=O)c1nc2c(N3CCOCC3)nc(-c3cnn(C)c3)nc2[nH]1 [compound 52, N-(2-Methoxyethyl)-2-(1-methyl-1H-pyrazol-4-yl)-6-(morpholin-4-yl)-9H-purine-8-carboxamide] |
| 20 | Cn1cc(-c2nc(N3CCOCC3)c3nc(C(=O)N4CCC5(CC4)CNC(=O)C5)[nH]c3n2)cn1 [compound 122, 8-{[2-(1-Methyl-1H-pyrazol-4-yl)-6-(morpholin-4-yl)-9H-purin-8-yl]carbonyl}-2,8-diazaspiro[4.5]decan-3-one] |
| 31 | CC(=O)N[C@H]1CCN(C(=O)c2nc3c(N4CCOCC4)nc(-c4cnn(C)c4)nc3[nH]2)C1 [compound 37, N-[(3S)-1-{[2-(1-methyl-1H-pyrazol-4-yl)-6-(morpholin-4-yl)-9H-purin-8-yl]carbonyl}pyrrolidin-3-yl]acetamide] |

| Structure (SMILES) | IC50 [nM] |
| --- | --- |
| Cn1cc(-c2nc(N3CCOCC3)c3nc(C(=O)N4CCN(c5ccccc5)CC4)[nH]c3n2)cn1 [compound 32, [2-(1-Methyl-1H-pyrazol-4-yl)-6-(morpholin-4-yl)-9H-purin-8-yl](4-phenylpiperazin-1-yl)methanone] | 56 |
| Cn1cc(-c2nc(N3CCOCC3)c3nc(C(=O)N4CCC(c5ccccc5)CC4)[nH]c3n2)cn1 [compound 35, [2-(1-Methyl-1H-pyrazol-4-yl)-6-(morpholin-4-yl)-9H-purin-8-yl](4-phenylpiperidin-1-yl)methanone] | 17 |
